Source: ChEMBL document CHEMBL1123320, “Studies in potential filaricides. 18. Synthesis of 2,2'-disubstituted 5,5'-dibenzimidazolyl ketones and related compounds as potential anthelmintics” (1986)

Key:
Cricetinae gen. sp. [1] = assay: Anthelmintic activity against Ancylostoma ceylanicum (hook worm) in hamsters at a dose of 1x 1 mg/kg administered perorally; type: functional, Cricetulus griseus; conditions: route oral
Cricetinae gen. sp. [2] = assay: Anthelmintic activity against Ancylostoma ceylanicum in hamsters at a dose 1x 1 mg/kg administered perorally; type: functional, Cricetulus griseus; conditions: route oral
Cricetinae gen. sp. [3] = assay: Anthelmintic activity against Ancylostoma ceylanicum in hamsters at a dose of 0.5x1 mg/kg administered perorally; type: functional, Cricetulus griseus
Mastomys natalensis [4] = assay: Filaricidal activity against Brugia malayi in Mastomys at a dosage of 200 mg/kg x 5 administered orally; type: functional; conditions: route oral
Mastomys natalensis [5] = assay: Filaricidal activity against Brugia malayi in Mastomys at a dosage of 50 mg/kg x 5 administered intraperitoneally; type: functional; conditions: route intraperitoneal
Mastomys natalensis [6] = assay: Filaricidal activity against Dipetalonema viteae in Mastomys at a dosage of 300 mg/kg x 5 administered orally; type: functional; conditions: route oral
Mastomys natalensis [7] = assay: Filaricidal activity against Dipetalonema viteae in Mastomys at a dosage of 6.25 mg/kg x 5 administered subcutaneous; type: functional
Mastomys natalensis [8] = assay: Filaricidal activity against Brugia malayi in Mastomys at a dosage of 200 mg/kg x 5 administered orally at a day of 42; type: functional; conditions: route oral
Mastomys natalensis [9] = assay: Filaricidal activity against Brugia malayi in Mastomys at a dosage of 200 mg/kg x 5 administered orally at a day of 63; type: functional; conditions: route oral
Mastomys natalensis [10] = assay: Filaricidal activity against Brugia malayi in Mastomys at a dosage of 200 mg/kg x 5 administered orally at a day of 8; type: functional; conditions: route oral
Mastomys natalensis [11] = assay: Filaricidal activity against Brugia malayi in Mastomys at a dosage of 200 mg/kg x 5 administered orally at a day of 91; type: functional; conditions: route oral
Mastomys natalensis [12] = assay: Filaricidal activity against Brugia malayi in Mastomys at a dosage of 50 mg/kg x 5 administered intraperitoneally at a day of 21; type: functional; conditions: route intraperitoneal
Mastomys natalensis [13] = assay: Filaricidal activity against Brugia malayi in Mastomys at a dosage of 50 mg/kg x 5 administered intraperitoneally at a day of 42; type: functional; conditions: route intraperitoneal
Mastomys natalensis [14] = assay: Filaricidal activity against Brugia malayi in Mastomys at a dosage of 50 mg/kg x 5 administered intraperitoneally at a day of 63; type: functional; conditions: route intraperitoneal
Mastomys natalensis [15] = assay: Filaricidal activity against Brugia malayi in Mastomys at a dosage of 50 mg/kg x 5 administered intraperitoneally at a day of 8; type: functional; conditions: route intraperitoneal
Mastomys natalensis [16] = assay: Filaricidal activity against Brugia malayi in Mastomys at a dosage of 50 mg/kg x 5 administered intraperitoneally at a day of 91; type: functional; conditions: route intraperitoneal
Mastomys natalensis [17] = assay: Filaricidal activity against Dipetalonema viteae in Mastomys at a dosage of 6.25 mg/kg x 5 administered subcutaneous at a day of 42; type: functional
Mastomys natalensis [18] = assay: Filaricidal activity against Dipetalonema viteae in Mastomys at a dosage of 300 mg/kg x 5 administered orally at a day of 21; type: functional; conditions: route oral
Mastomys natalensis [19] = assay: Filaricidal activity against Dipetalonema viteae in Mastomys at a dosage of 300 mg/kg x 5 administered orally at a day of 42; type: functional; conditions: route oral
Mastomys natalensis [20] = assay: Filaricidal activity against Dipetalonema viteae in Mastomys at a dosage of 6.25 mg/kg x 5 administered subcutaneous at a day of 21; type: functional
Mastomys natalensis [21] = assay: Filaricidal activity against Dipetalonema viteae in Mastomys at a dosage of 6.25 mg/kg x 5 administered subcutaneous at a day of 8; type: functional
Mus musculus [22] = assay: Anthelmintic activity against Syphacia obvelata in mice at a dose of 100x1 mg/kg administered perorally; type: functional
Mus musculus [23] = assay: Anthelmintic activity against Syphacia obvelata in mice at a dose of 50x1 mg/kg administered perorally; type: functional
Rattus norvegicus [24] = assay: Anthelmintic activity against Hymenolepis nana in rats at a dose of 400x3 mg/kg administered perorally; type: functional
Rattus norvegicus [25] = assay: Filaricidal activity against Litomosoides carinii in cotton rats at a dosage of 10 mg/kg x 5 administered intraperitoneally at a day of 42; type: functional; conditions: route intraperitoneal
Rattus norvegicus [26] = assay: Filaricidal activity against Litomosoides carinii in cotton rats at a dosage of 300 mg/kg x 5 administered orally at a day of 8; type: functional; conditions: route oral
Rattus norvegicus [27] = assay: Filaricidal activity against Litomosoides carinii in cotton rats at a dosage of 300 mg/kg x 5 administered orally at a day of 21; type: functional; conditions: route oral
Rattus norvegicus [28] = assay: Filaricidal activity against Litomosoides carinii in cotton rats at a dosage of 300 mg/kg x 5 administered orally at a day of 42; type: functional; conditions: route oral
Mastomys natalensis [29] = assay: Filaricidal activity against Brugia malayi in Mastomys at a dosage of 200 mg/kg x 5 administered orally at a day of 21; type: functional; conditions: route oral
Mastomys natalensis [30] = assay: Filaricidal activity against Dipetalonema viteae in Mastomys at a dosage of 300 mg/kg x 5 administered orally at a day of 8; type: functional; conditions: route oral
Litomosoides carinii = assay: Filaricidal activity against Litomosoides carinii in cotton rats at a dosage of 300 mg/kg x 5 administered orally; conditions: route oral
Sigmodon hispidus [31] = assay: Filaricidal activity against Litomosoides carinii in cotton rats at a dosage of 10 mg/kg x 5 administered intraperitoneally at a day of 8; conditions: route intraperitoneal
Sigmodon hispidus [32] = assay: Filaricidal activity against Litomosoides carinii in cotton rats at a dosage of 10 mg/kg x 5 administered intraperitoneally at a day of 21; conditions: route intraperitoneal
Sigmodon hispidus [33] = assay: Filaricidal activity against Litomosoides carinii in cotton rats at a dosage of 10 mg/kg x 5 administered intraperitoneally at a day of 42; conditions: route intraperitoneal
Cricetinae gen. sp. [34] = assay: Anthelmintic activity against Ancylostoma ceylanicum in hamsters at a dose of 12.5x1 mg/kg administered perorally; type: functional, Cricetulus griseus
Cricetinae gen. sp. [35] = assay: Anthelmintic activity against Ancylostoma ceylanicum in hamsters at a dose of 25x1 mg/kg administered perorally; type: functional, Cricetulus griseus
Cricetinae gen. sp. [36] = assay: Anthelmintic activity against Ancylostoma ceylanicum in hamsters at a dose of 50x1 mg/kg administered perorally; type: functional, Cricetulus griseus
Cricetinae gen. sp. [37] = assay: Anthelmintic activity against Ancylostoma ceylanicum in hamsters at a dose of 6.25 x1 mg/kg administered perorally; type: functional, Cricetulus griseus
Cricetinae gen. sp. [38] = assay: Anthelmintic activity against Ancylostoma ceylanicum (hook worm) in hamsters at a dose of 50x1 mg/kg administered perorally; type: functional, Cricetulus griseus
Mastomys natalensis [39] = assay: Filaricidal activity against Dipetalonema viteae in Mastomys at a dosage of 150 mg/kg x 5 administered orally; type: functional; conditions: route oral
Mastomys natalensis [40] = assay: Filaricidal activity against Dipetalonema viteae in Mastomys at a dosage of 25 mg/kg x 5 administered subcutaneous; type: functional
Mastomys natalensis [41] = assay: Filaricidal activity against Dipetalonema viteae in Mastomys at a dosage of 150 mg/kg x 5 administered orally at a day of 21; type: functional; conditions: route oral
Mastomys natalensis [42] = assay: Filaricidal activity against Dipetalonema viteae in Mastomys at a dosage of 150 mg/kg x 5 administered orally at a day of 42; type: functional; conditions: route oral
Mastomys natalensis [43] = assay: Filaricidal activity against Dipetalonema viteae in Mastomys at a dosage of 150 mg/kg x 5 administered orally at a day of 8; type: functional; conditions: route oral
Mastomys natalensis [44] = assay: Filaricidal activity against Dipetalonema viteae in Mastomys at a dosage of 25 mg/kg x 5 administered subcutaneous at a day of 21; type: functional
Mastomys natalensis [45] = assay: Filaricidal activity against Dipetalonema viteae in Mastomys at a dosage of 25 mg/kg x 5 administered subcutaneous at a day of 42; type: functional
Mastomys natalensis [46] = assay: Filaricidal activity against Dipetalonema viteae in Mastomys at a dosage of 25 mg/kg x 5 administered subcutaneous at a day of 8; type: functional
Mus musculus [47] = assay: Anthelmintic activity against Syphacia obvelata in mice at a dose of 25x1 mg/kg administered perorally; type: functional
Rattus norvegicus [48] = assay: Anthelmintic activity against Hymenolepis nana in rats at a dose of 100x1 mg/kg administered perorally; type: functional
Rattus norvegicus [49] = assay: Anthelmintic activity against Hymenolepis nana in rats at a dose of 250x1 mg/kg administered perorally; type: functional
Rattus norvegicus [50] = assay: Anthelmintic activity against Hymenolepis nana in rats at a dose of 50x1 mg/kg administered perorally; type: functional
Rattus norvegicus [51] = assay: Filaricidal activity against Litomosoides carinii in cotton rats at a dosage of 100 mg/kg x 5 administered orally; type: functional; conditions: route oral
Mastomys natalensis [52] = assay: Filaricidal activity against Brugia malayi in Mastomys at a dosage of 200 mg/kg x 5 administered orally at a day of 42; conditions: route oral
Sigmodon hispidus [53] = assay: Filaricidal activity against Litomosoides carinii in cotton rats at a dosage of 100 mg/kg x 5 administered orally at a day of 8; conditions: route oral
Sigmodon hispidus [54] = assay: Filaricidal activity against Litomosoides carinii in cotton rats at a dosage of 100 mg/kg x 5 administered orally at a day of 21; conditions: route oral
Sigmodon hispidus [55] = assay: Filaricidal activity against Litomosoides carinii in cotton rats at a dosage of 100 mg/kg x 5 administered orally at a day of 42; conditions: route oral

SMILES: COC(=O)Nc1nc2cc(C(=O)c3ccccc3)ccc2[nH]1 [MEBENDAZOLE]
- Worm reduction (Cricetinae gen. sp. [1]): 100%
- Animals cured (Cricetinae gen. sp. [2]): 100%
- Animals cured (Cricetinae gen. sp. [3]): 37.5%
- Worm reduction (Cricetinae gen. sp. [3]): 72%
- Death (Mastomys natalensis [4]): 0%
- Death (Mastomys natalensis [5]): 100%
- Death (Mastomys natalensis [6]): 85.4%
- Death (Mastomys natalensis [7]): 100%
- Removal of microfilariae (Mastomys natalensis [8]): 0%
- Removal of microfilariae (Mastomys natalensis [9]): 0%
- Removal of microfilariae (Mastomys natalensis [10]): 0%
- Removal of microfilariae (Mastomys natalensis [11]): 0%
- Removal of microfilariae (Mastomys natalensis [12]): 65.3%
- Removal of microfilariae (Mastomys natalensis [13]): 100%
- Removal of microfilariae (Mastomys natalensis [14]): 100%
- Removal of microfilariae (Mastomys natalensis [15]): 0%
- Removal of microfilariae (Mastomys natalensis [16]): 100%
- Removal of microfilariae (Mastomys natalensis [17]): 100%
- Removal of microfilariae (Mastomys natalensis [18]): 85.5%
- Removal of microfilariae (Mastomys natalensis [19]): 100%
- Removal of microfilariae (Mastomys natalensis [20]): 100%
- Removal of microfilariae (Mastomys natalensis [21]): 53.1%
- Animals cured (Mus musculus [22]): 66.6%
- Animals cured (Mus musculus [23]): 0%
- Animals cured (Rattus norvegicus [24]): 0%
- Death (Rattus norvegicus [25]): 100%
- Removal of microfilariae (Rattus norvegicus [26]): 48.8%
- Removal of microfilariae (Rattus norvegicus [27]): 57.7%
- Removal of microfilariae (Rattus norvegicus [28]): 74.3%
- Removal of microfilariae (Mastomys natalensis [29]): 0%
- Removal of microfilariae (Mastomys natalensis [30]): 0%
- Death (Litomosoides carinii): 33.8%
- Removal of microfilariae (Sigmodon hispidus [31]): 58.6%
- Removal of microfilariae (Sigmodon hispidus [32]): 96.3%
- Removal of microfilariae (Sigmodon hispidus [33]): 100%

SMILES: COC(=O)Nc1nc2cc(C(=O)c3ccc4[nH]c(NC(=O)OC)nc4c3)ccc2[nH]1
- Animals cured (Cricetinae gen. sp. [34]): 0%
- Worm reduction (Cricetinae gen. sp. [34]): 40.4%
- Animals cured (Cricetinae gen. sp. [35]): 50%
- Worm reduction (Cricetinae gen. sp. [35]): 60%
- Animals cured (Cricetinae gen. sp. [36]): 100%
- Animals cured (Cricetinae gen. sp. [37]): 0%
- Worm reduction (Cricetinae gen. sp. [37]): 0%
- Worm reduction (Cricetinae gen. sp. [38]): 100%
- Death (Mastomys natalensis [4]): 97%
- Death (Mastomys natalensis [5]): 99%
- Death (Mastomys natalensis [39]): 100%
- Death (Mastomys natalensis [40]): 100%
- Removal of microfilariae (Mastomys natalensis [9]): 63.9%
- Removal of microfilariae (Mastomys natalensis [10]): 0%
- Removal of microfilariae (Mastomys natalensis [11]): 94%
- Removal of microfilariae (Mastomys natalensis [12]): 60.1%
- Removal of microfilariae (Mastomys natalensis [13]): 89%
- Removal of microfilariae (Mastomys natalensis [14]): 89.4%
- Removal of microfilariae (Mastomys natalensis [15]): 0%
- Removal of microfilariae (Mastomys natalensis [16]): 93%
- Removal of microfilariae (Mastomys natalensis [41]): 0%
- Removal of microfilariae (Mastomys natalensis [42]): 100%
- Removal of microfilariae (Mastomys natalensis [43]): 0%
- Removal of microfilariae (Mastomys natalensis [44]): 58.8%
- Removal of microfilariae (Mastomys natalensis [45]): 100%
- Removal of microfilariae (Mastomys natalensis [46]): 0%
- Animals cured (Mus musculus [22]): 100%
- Animals cured (Mus musculus [47]): 0%
- Animals cured (Mus musculus [23]): 66.6%
- Animals cured (Rattus norvegicus [48]): 50%
- Animals cured (Rattus norvegicus [49]): 100%
- Animals cured (Rattus norvegicus [50]): 16.6%
- Death (Rattus norvegicus [51]): 100%
- Death (Rattus norvegicus [25]): 100%
- Removal of microfilariae (Mastomys natalensis [29]): 0%
- Removal of microfilariae (Mastomys natalensis [52]): 30%
- Removal of microfilariae (Sigmodon hispidus [53]): 72%
- Removal of microfilariae (Sigmodon hispidus [54]): 80.9%
- Removal of microfilariae (Sigmodon hispidus [55]): 100%
- Removal of microfilariae (Sigmodon hispidus [31]): 65.6%
- Removal of microfilariae (Sigmodon hispidus [32]): 100%
- Removal of microfilariae (Sigmodon hispidus [33]): 100%
